Structures can show the parent of a compound that is named as a salt.
Experiments:
beagle dog hepatocytes = experiment: Hepatocyte stability, beagle dog; format: in vitro ADME; settings: 2 μM, 0.5 million cells/ml
Experimental: (§1) In this study, human, cynomolgus monkey, beagle dog, wistar hannover rat, and balb/c mouse hepatocyle stability was determined.

[1] = Plasma stability, human plasma (K2EDTA); format: in vitro ADME; settings: human plasma, 2 μM, anti-coagulant K2-EDTA; for % Remaining at T120: 120 min
[2] = system: cynomolgus monkey hepatocytes; experiment: Hepatocyte stability, cynomolgus monkey; format: in vitro ADME; settings: 2 μM, 0.5 million cells/ml
Experimental: as §1

balb/c mouse hepatocytes = experiment: Hepatocyte stability, balb/c mouse; format: in vitro ADME; settings: 2 μM, 0.5 million cells/ml
Experimental: as §1

[3] = Plasma stability, cynomolgus monkey plasma (K2-EDTA); format: in vitro ADME; settings: for % Remaining at T120: 120 min
[4] = system: wistar hannover rat hepatocytes; experiment: Hepatocyte stability, wistar hannover rat; format: in vitro ADME; settings: 2 μM, 0.5 million cells/ml
Experimental: as §1

CYP2C9 = CYP2C9 (Homo sapiens, UniProt P11712); experiment: CYP450 panel inhibition in human liver microsomes, 2C9 (diclofenac)
Description: The quenched samples were stored refrigerated.

[5] = Plasma stability, mouse plasma (Balb/c; Table 5 head CD-1 Mouse); format: in vitro ADME; settings: balb/c plasma, 2 μM, anti-coagulant K2-EDTA; for % Remaining at T120: 120 min
human hepatocytes = experiment: Hepatocyte stability, human; format: in vitro ADME; settings: 2 μM, 0.5 million cells/ml
Experimental: as §1

[6] = Plasma stability, beagle dog plasma (K2EDTA); format: in vitro ADME; settings: beagle dog plasma, 2 μM, anti-coagulant K2-EDTA; for % Remaining at T120: 120 min
[7] = Plasma stability, rat plasma (Wistar Han / wistar hannover; Table 5 head SD Rat); format: in vitro ADME; settings: wistar hannover rat plasma, 2 μM, anti-coagulant K2-EDTA; for % Remaining at T120: 120 min

Sequence of CYP2C9 (P11712 whole entry): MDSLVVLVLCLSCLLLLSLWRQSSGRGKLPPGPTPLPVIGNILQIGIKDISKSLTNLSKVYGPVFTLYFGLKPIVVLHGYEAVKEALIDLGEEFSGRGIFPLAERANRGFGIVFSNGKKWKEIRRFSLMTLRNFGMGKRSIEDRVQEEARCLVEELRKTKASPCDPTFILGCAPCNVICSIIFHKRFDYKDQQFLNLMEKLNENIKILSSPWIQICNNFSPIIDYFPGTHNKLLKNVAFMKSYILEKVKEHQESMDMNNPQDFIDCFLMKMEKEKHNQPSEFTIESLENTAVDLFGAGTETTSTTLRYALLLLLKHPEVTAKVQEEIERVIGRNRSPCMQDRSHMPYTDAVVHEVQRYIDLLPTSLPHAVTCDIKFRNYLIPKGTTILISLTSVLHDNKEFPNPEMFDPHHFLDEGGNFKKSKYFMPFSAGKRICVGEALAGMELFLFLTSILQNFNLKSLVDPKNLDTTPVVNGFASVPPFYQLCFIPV

CCS(=O)(=O)Nc1cccc(Cc2c(CN3CCNCC3)c3cc(Cl)c(OC(=O)N(C)C)cc3oc2=O)c1Cl [Compound 257, 6-chloro-3-(2-chloro-3-(ethylsulfonamido)benzyl)-2-oxo-4-(piperazin-1-ylmethyl)-2H-chromen-7-yl dimethylcarbamate hydrochloride]
% Remaining At T120 (beagle dog hepatocytes): 47.8% | % Remaining at T120 [1]: 96.3% | half-life at 2 μM ([1]; pH 7.4, 10 to 120 min, read-out: T1/2): 7.2 days | % Remaining At T120 [2]: 62.8% | % Remaining At T120 (balb/c mouse hepatocytes): 66.7% | % Remaining at T120 ([3]; 2 μM, anti-coagulant K2-EDTA): 98.0% | half-life at 2 μM ([3]; plasma (K2EDTA), pH 7.4, anti-coagulant K2-EDTA): 1210 min | % Remaining At T120 [4]: 45.4% | inhibition at 30 min, 10 µM (CYP2C9; human, microsomes, pH 7.4): 53.7% | % Remaining at T120 [5]: 87.5% | half-life at 2 μM ([5]; mouse, pH 7.4, read-out: T1/2): 586 min | % Remaining At T120 (human hepatocytes; 120 min): 89.1% | % Remaining at T120 [6]: 100.9% | half-life at 2 μM ([6]; pH 7.4, read-out: T1/2): > 120 min | half-life at 2 μM ([7]; pH 7.4, read-out: T1/2): 1010 min | % Remaining at T120 [7]: 91.5%

CNS(=O)(=O)Nc1cccc(Cc2c(CN3CCNCC3)c3cc(F)c(OC(=O)N(C)C)cc3oc2=O)c1F [Compound 134]
% Remaining At T120 (beagle dog hepatocytes): 74.7% | CLint (L/hr/kg) (beagle dog hepatocytes): 1.57 L/h/kg | CLint (mL/min/kg) (beagle dog hepatocytes): 26.1 mL/min/kg | T1/2 (beagle dog hepatocytes): 285 min | T1/2 ([1]; 10 to 120 min): >120 min | % Remaining at T120 [1]: 107.8% | % Remaining At T120 [2]: 78.5% | CLint (L/hr/kg) [2]: 0.980 L/h/kg | CLint (mL/min/kg) [2]: 16.3 mL/min/kg | T1/2 [2]: 344 min | % Remaining At T120 (balb/c mouse hepatocytes): 70.2% | CLint (L/hr/kg) (balb/c mouse hepatocytes): 4.18 L/h/kg | CLint (mL/min/kg) (balb/c mouse hepatocytes): 69.7 mL/min/kg | T1/2 (balb/c mouse hepatocytes): 235 min | T1/2 ([3]; 2 μM, anti-coagulant K2-EDTA): 946 min | % Remaining at T120 ([3]; 2 μM, anti-coagulant K2-EDTA): 93.0% | % Remaining At T120 [4]: 59.8% | CLint (L/hr/kg) [4]: 1.39 L/h/kg | CLint (mL/min/kg) [4]: 23.1 mL/min/kg | T1/2 [4]: 162 min | CYP-2C9 (Diclofenac) mean percentage CYP inhibition (CYP2C9; human liver microsomes, 10 μM, substrate diclofenac): 20.5% | T1/2 [5]: 2811 min | % Remaining at T120 [5]: 100.2% | CLint (L/hr/kg) (human hepatocytes): 0.148 L/h/kg | CLint (mL/min/kg) (human hepatocytes): 2.46 mL/min/kg | % Remaining At T120 (human hepatocytes; 120 min): 94.7% | T1/2 (human hepatocytes; 120 min): 1521 min | T1/2 [6]: 627 min | % Remaining at T120 [6]: 89.9% | T1/2 [7]: 1269 min | % Remaining at T120 [7]: 95.2%
